Laboratory results from patent publication US11040981B2, “Pyrrolotriazine compounds and methods of inhibiting TAM kinases” (Syros Pharmaceuticals, Inc., priority 2017, dated 2021).

Experiments:
MERTK = target: T1, MERTK (Homo sapiens, UniProt Q12866); test: TR-FRET kinase activity assay, MERTK; type: biochemical; conditions: for IC50: TR-FRET activity assay, ATP at Km, 60 minutes, read-out: Mer IC50
T1 sequence (Q12866 21-999): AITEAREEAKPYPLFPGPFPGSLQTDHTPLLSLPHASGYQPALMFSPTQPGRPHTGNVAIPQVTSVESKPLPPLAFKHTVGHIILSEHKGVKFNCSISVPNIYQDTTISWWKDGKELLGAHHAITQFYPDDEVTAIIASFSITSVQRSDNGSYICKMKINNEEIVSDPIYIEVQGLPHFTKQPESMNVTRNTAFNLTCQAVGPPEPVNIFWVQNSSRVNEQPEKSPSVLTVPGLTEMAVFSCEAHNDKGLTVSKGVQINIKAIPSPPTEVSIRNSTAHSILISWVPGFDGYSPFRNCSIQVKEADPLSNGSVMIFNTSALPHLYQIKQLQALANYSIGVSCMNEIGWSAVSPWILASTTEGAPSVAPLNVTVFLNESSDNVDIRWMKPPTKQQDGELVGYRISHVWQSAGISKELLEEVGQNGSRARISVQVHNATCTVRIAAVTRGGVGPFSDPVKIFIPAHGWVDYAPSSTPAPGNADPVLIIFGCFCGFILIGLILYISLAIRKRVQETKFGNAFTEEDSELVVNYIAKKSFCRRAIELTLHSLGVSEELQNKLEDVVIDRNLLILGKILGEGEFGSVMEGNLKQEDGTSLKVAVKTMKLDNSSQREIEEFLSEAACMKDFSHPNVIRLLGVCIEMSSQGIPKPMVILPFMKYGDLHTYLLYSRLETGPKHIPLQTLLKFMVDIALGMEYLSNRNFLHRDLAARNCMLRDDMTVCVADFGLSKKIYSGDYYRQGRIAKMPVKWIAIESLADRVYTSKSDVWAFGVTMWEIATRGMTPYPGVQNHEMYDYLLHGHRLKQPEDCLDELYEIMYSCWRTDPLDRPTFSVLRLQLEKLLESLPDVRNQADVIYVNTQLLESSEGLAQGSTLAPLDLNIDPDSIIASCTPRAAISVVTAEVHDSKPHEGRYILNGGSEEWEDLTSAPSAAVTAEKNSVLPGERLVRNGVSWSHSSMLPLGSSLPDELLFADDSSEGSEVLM
In short: (§1)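 Inhibition is measured as loss of phospho-peptide formation: kinase, fluorescent tyrosine peptide and compound are combined, ATP is added at Km, and the reaction proceeds 60 min at RT in pH 7.5 HEPES buffer. An EDTA stop and Eu-labelled phospho-specific antibody allow TR-FRET detection for IC50 fitting.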

TYRO3 = target: T2, TYRO3 (Homo sapiens, UniProt Q06418); test: TR-FRET kinase activity assay, TYRO3; type: biochemical; conditions: ATP at Km, 60 minutes
T2 sequence (Q06418 41-890): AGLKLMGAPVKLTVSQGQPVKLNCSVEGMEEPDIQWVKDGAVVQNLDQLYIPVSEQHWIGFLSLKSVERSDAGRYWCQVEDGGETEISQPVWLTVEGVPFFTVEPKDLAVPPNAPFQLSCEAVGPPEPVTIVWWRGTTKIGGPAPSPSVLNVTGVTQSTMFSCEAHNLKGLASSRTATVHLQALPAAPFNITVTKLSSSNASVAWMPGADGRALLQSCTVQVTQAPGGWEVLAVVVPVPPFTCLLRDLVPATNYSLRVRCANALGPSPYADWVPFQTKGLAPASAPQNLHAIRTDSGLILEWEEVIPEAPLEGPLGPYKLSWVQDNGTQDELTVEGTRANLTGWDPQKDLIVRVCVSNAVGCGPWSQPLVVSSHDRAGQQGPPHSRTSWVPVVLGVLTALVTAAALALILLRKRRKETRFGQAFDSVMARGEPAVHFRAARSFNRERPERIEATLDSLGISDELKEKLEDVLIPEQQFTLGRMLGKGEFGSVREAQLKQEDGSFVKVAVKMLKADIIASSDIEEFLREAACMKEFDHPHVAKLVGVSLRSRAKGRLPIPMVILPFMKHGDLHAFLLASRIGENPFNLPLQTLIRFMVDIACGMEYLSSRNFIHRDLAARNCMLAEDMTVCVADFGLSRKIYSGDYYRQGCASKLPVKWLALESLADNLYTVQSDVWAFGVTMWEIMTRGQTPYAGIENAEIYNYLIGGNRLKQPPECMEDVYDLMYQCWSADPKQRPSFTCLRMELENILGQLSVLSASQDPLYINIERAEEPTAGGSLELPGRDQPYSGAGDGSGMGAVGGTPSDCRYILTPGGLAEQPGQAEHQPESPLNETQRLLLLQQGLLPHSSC
In short: as §1

[1] = ratio calculated as FLT3 IC50/Mer IC50

| Structure (SMILES) | IC50 (MERTK) [nM] | FLT3/Mer ratio (FLT3 IC50/Mer IC50) (MERTK; [1]) | IC50 (TYRO3) [nM] | FLT3/Mer ratio (FLT3 IC50/Mer IC50) (MERTK; ratio of Mer to FLT3: FLT3 IC50/Mer IC50) |
| --- | --- | --- | --- | --- |
| COC[C@H](C)Nc1ncc2c(-c3ccc([S@](C)(=N)=O)nc3)cc([C@H]3CC[C@H](O)CC3)n2n1 [Compound 532] | ≤ 100 | +++ (“+++” represents a ratio of >100) | ≤ 100 |  |
| COC[C@H](C)Nc1ncc2c(-c3ccnc(C(F)(F)F)c3)cc([C@H]3CC[C@H](O)CC3)n2n1 [Compound 584] | ≤ 100 | +++ (“+++” represents a ratio of >100) | ≤ 100 |  |
| COC[C@H](C)Nc1ncc2c([C@H]3CC[C@@H](C(=O)N4CC5(COC5)C4)CC3)cc([C@H]3CC[C@H](O)CC3)n2n1 [Compound 579] | ≤ 100 | +++ (“+++” represents a ratio of >100) | ≤ 100 |  |
| COCC(C)Nc1ncc2c(-c3cnn(C4COC4)c3)cc(C3CCNC(=O)C3)n2n1 (mixture of isomers) [Compound 592] | ≤ 100 | +++ (“+++” represents a ratio of >100) | ≤ 100 |  |
| COCC(C)Nc1ncc2c(-c3ccc4cc[nH]c4c3)cc(C3CCC(O)CC3)n2n1 (stereo not drawn) [Compound 538] | ≤ 100 | +++ (“+++” represents a ratio of >100) | ≤ 100 |  |
| COC[C@H](C)Nc1ncc2c(-c3ccc(C(=O)O)cc3)cc([C@H]3CC[C@H](O)CC3)n2n1 [Compound 139] | ≤ 100 |  | ≤ 100 | +++ (“+++” represents a ratio of >100) |
| COC[C@H](C)Nc1ncc2c(-c3cnn(C4COC4)c3)cc([C@H]3CC[C@@H](O)CC3)n2n1 [Compound 564] | ≤ 100 | ++ (“++” represents a ratio of between 10 and 100) | ≤ 100 |  |
| CC(Nc1ncc2c(-c3cnn(C4COC4)c3)cc(C3CCC(O)CC3)n2n1)c1cccnc1 (racemic) [Compound 536] | ≤ 100 | +++ (“+++” represents a ratio of >100) | ≤ 100 |  |
| COC[C@H](C)Nc1ncc2c(-c3cnn(C(C)(C)C(=O)N4CCO[C@@H](C(C)(C)O)C4)c3)cc([C@H]3CC[C@H](O)CC3)n2n1 [Compound 585] | ≤ 100 | +++ (“+++” represents a ratio of >100) | ≤ 100 |  |
| COC[C@H](C)Nc1ncc2c([C@H]3CC[C@H](C(=O)N4CC5(COC5)C4)CC3)cc([C@H]3CC[C@H](O)CC3)n2n1 [Compound 578] | ≤ 100 | +++ (“+++” represents a ratio of >100) | ≤ 100 |  |
| C[C@@H](CC(F)(F)F)Nc1ncc2c(-c3ccnc([S@@](C)(=N)=O)c3)cc([C@H]3CC[C@H](O)CC3)n2n1 [Compound 581] | ≤ 100 | +++ (“+++” represents a ratio of >100) | ≤ 100 |  |
| C[C@H](Nc1ncc2c(-c3cnn(C4COC4)c3)cc([C@H]3CC[C@H](O)CC3)n2n1)C(F)(F)F [Compound 510] | ≤ 100 | +++ (“+++” represents a ratio of >100) | ≤ 100 |  |
| COCC(C)Nc1ncc2c(-c3ccc4[nH]ccc4c3)cc(C3CCC(O)CC3)n2n1 (stereo not drawn) [Compound 539] | ≤ 100 | +++ (“+++” represents a ratio of >100) | ≤ 100 |  |
| COC[C@H](C)Nc1ncc2c(-c3ccc([S@@](C)(=N)=O)nc3)cc([C@H]3CC[C@H](O)CC3)n2n1 [Compound 533] | ≤ 100 | +++ (“+++” represents a ratio of >100) | ≤ 100 |  |
| CC(Cc1ccc(F)cc1)Nc1ncc2c(-c3cnn(C4COC4)c3)cc(C3CCC(O)CC3)n2n1 (racemic) [Compound 535] | ≤ 100 | ++ (“++” represents a ratio of between 10 and 100) | ≤ 100 |  |
| COC[C@H](C)Nc1ncc2c(-c3cnn(C(C)(C)c4nnc(C5CC5)o4)c3)cc([C@H]3CC[C@H](O)CC3)n2n1 [Compound 563] | ≤ 100 | +++ (“+++” represents a ratio of >100) | ≤ 100 |  |
| CC(Nc1ncc2c(-c3cnn(C4COC4)c3)cc(C3CCC(O)CC3)n2n1)c1ccccn1 (stereo not drawn) [Compound 544] | 100 to 1000 | ++ (“++” represents a ratio of between 10 and 100) | ≤ 100 |  |
| COC[C@H](C)Nc1ncc2c(-c3ccnc(N4CCc5cnn(C)c5C4)c3)cc([C@H]3CC[C@H](O)CC3)n2n1 [Compound 518] | ≤ 100 | +++ (“+++” represents a ratio of >100) | ≤ 100 |  |
| C[C@@H](CC(F)(F)F)Nc1ncc2c(-c3cncc([S@@](C)(=N)=O)c3)cc([C@H]3CC[C@H](O)CC3)n2n1 [Compound 583] | ≤ 100 | +++ (“+++” represents a ratio of >100) | ≤ 100 |  |
| COC[C@H](C)Nc1ncc2c([C@H]3CC[C@@H](C(=O)N4CCC(F)(F)CC4)CC3)cc([C@H]3CC[C@H](O)CC3)n2n1 [Compound 577] | ≤ 100 | +++ (“+++” represents a ratio of >100) | ≤ 100 |  |
| COC[C@H](C)Nc1ncc2c(-c3cnn(C(C)(C)C(=O)N4CC[C@H](O)C4)c3)cc([C@H]3CC[C@H](O)CC3)n2n1 [Compound 554] | ≤ 100 | +++ (“+++” represents a ratio of >100) | ≤ 100 |  |
| COC[C@H](C)Nc1ncc2c(-c3ccnc(N4CCOCC4)c3)cc([C@H]3CC[C@](C)(O)CC3)n2n1 [Compound 549] | ≤ 100 | +++ (“+++” represents a ratio of >100) | ≤ 100 |  |
| COC[C@H](C)Nc1ncc2c(-c3cncc([S@@](C)(=N)=O)c3)cc([C@H]3CC[C@H](O)CC3)n2n1 [Compound 573] | ≤ 100 | +++ (“+++” represents a ratio of >100) | ≤ 100 |  |
| COC[C@H](C)Nc1ncc2c(-c3cnn(C4COC4)c3)cc([C@@H]3CC[C@@H](O)[C@H](C)C3)n2n1 [Compound 589] | ≤ 100 | +++ (“+++” represents a ratio of >100) | ≤ 100 |  |
